Among the data in patent US20240207427A1, “SELECTIVE DRUG RELEASE FROM INTERNALIZED CONJUGATES OF BIOLOGICALLY ACTIVE COMPOUNDS” (priority 2021, published 2024) are IC50 values, retold here.

Where two headings read alike, the source gives them in different places.

The IC50 is the concentration that gives 50% inhibition.

Holding throughout (format): cell-based
Experiment [1] has as its system melanoma cells (A2058). Kind of experiment: In vitro potency (CellTiter-Glo, 96 h), A2058. The following applies: Homo sapiens, A2058, 96 h, read-out: A2058 IC50. As to the method:
(§1) In vitro potency was assessed on multiple cancer cell lines. All cell lines were authenticated by STR profiling at IDEXX Bioresearch and cultured for no more than 2 months after resuscitation. Cells cultured in log-phase growth were seeded for 24 hours in 96-well plates containing […] RPMI 1640 supplemented with 20% FBS. Serial dilutions of antibody-drug conjugates in cell culture media were prepared at 4× working concentrations, and 50 μL of each dilution was added to the 96-well plates. Following addition of test articles, cells were incubated with test articles for 4 days at 37 0° C. After 96 hours, growth inhibition was assessed by CellTiterGlo® (Promega, Madison, WI) and luminescence was measured on a plate reader.
(§2) In Table 7, IC50 values for ADCs are given in ng/mL. Cell viability was determined by CellTiter-Glo staining after 96 h exposure to ADC. ND=Not Determined. Ag2 is an antibody targeting a ubiquitous and readily internalizable antigen. The cancer cell lines tested are renal carcinoma cells (786-0), melanoma cells (A2058), pancreatic cancer cells (BxPC3), non-small-cell lung cancer cells (Calu1), anaplastic large cell lymphoma cells (DEL, DELBVR, Karpas299), Hodgkin's lymphoma cells (L540cy), (Ls174T), breast cancer cells (MDA-MB-231), acute myeloid leukemia cells (MOLM-13), and B-lymphocyte cancer cells (SU-DHL4).
(§3) In vitro potency was assessed on multiple cancer cell lines. All cell lines were authenticated by STR profiling at IDEXX Bioresearch and cultured for no more than 2 months after resuscitation. Cells cultured in log-phase growth were seeded for 24 hours in 96-well plates containing […] RPMI 1640 supplemented with 20% FBS. Following addition of test articles, cells were incubated with test articles for 4 days at 37 0° C. After 96 hours, growth inhibition was assessed by CellTiterGlo® (Promega, Madison, WI) and luminescence was measured on a plate reader.
(§4) Cell viability was determined by CellTiter-Glo staining after 96 h exposure to the compound. ND=Not Determined. The cancer cell lines tested are renal carcinoma cells (786-0), melanoma cells (A2058), pancreatic cancer cells (BxPC3), non-small-cell lung cancer cells (Calu1), anaplastic large cell lymphoma cells (DEL, DELBVR, Karpas299), Hodgkin's lymphoma cells (L540cy), (Ls 174T), breast cancer cells (MDA-MB-231), acute myeloid leukemia cells (MOLM-13), B-lymphocyte cancer cells (SU-DHL4), multiple myeloma cells (MM.1R), (U266), and melanoma cells (SK-MEL-5).
as §1, with “37°” for “37 0°”
(§5) In the following Tables IC50 values for ADCs and CPT free drugs are given in ng/mL and nmol/L concentrations. Cell viability was determined by CellTiter-Glo staining after 96 h exposure to ADC or CPT free drug.
(§6) Cell viability was determined by CellTiter-Glo staining after 96 h exposure to ADC. ND=Not Determined.
For orientation: In ATP-based viability assays light output follows the ATP content of the culture.

In experiment [2] the test system is anaplastic large cell lymphoma cells (Karpas299). The experiment can be described thus: In vitro potency (CellTiter-Glo, 96 h), Karpas299. The following applies: Homo sapiens, KARPAS-299, 96 h. As to the method: as §1, §2, §3, §4
as §1, with “37°” for “37 0°”
as §5, §6

The test system of experiment [3] is breast cancer cells (MDA-MB-231). Kind of experiment: In vitro potency (CellTiter-Glo, 96 h), MDA-MB-231. The following applies: Homo sapiens, MDA-MB-231, 96 h, 96 h. As to the method:
as §1, §2, §3, §4
as §1, with “37°” for “37 0°”
as §5, §6

For experiment [4], the system named is anaplastic large cell lymphoma cells (DELBVR). Kind of experiment: In vitro potency (CellTiter-Glo, 96 h), DELBVR. How it is done: as §1, §2, §3, §4
as §1, with “37°” for “37 0°”
as §5, §6

Experiment [5] relates to B-lymphocyte cancer cells (SU-DHL4). Kind of experiment: In vitro potency (CellTiter-Glo, 96 h), SU-DHL-4. The following applies: Homo sapiens, SU-DHL-4, 96 h. As to the method: as §1, §2, §3, §4
as §1, with “37°” for “37 0°”
as §5, §6

Experiment [6] concerns Hodgkin's lymphoma cells (L540cy). Kind of experiment: In vitro potency (CellTiter-Glo, 96 h), L540cy. How it is done:
as §1, §2, §3, §4
as §1, with “37°” for “37 0°”
as §5, §6

The test system of experiment [7] is Ls174T cells. Kind of experiment: In vitro potency (CellTiter-Glo, 96 h), Ls174T. The settings on record: Homo sapiens, LS174T, 96 h. As to the method:
as §1, §2, §3, §4
as §1, with “37°” for “37 0°”
as §5, §6

Experiment [8] has as its system acute myeloid leukemia cells (MOLM-13). The experiment can be described thus: In vitro potency (CellTiter-Glo, 96 h), MOLM-13. The following applies: Homo sapiens, MOLM-13, 96 h. As to the method:
as §1, §2, §3, §4
as §1, with “37°” for “37 0°”
as §5, §6

Experiment [9] deals with anaplastic large cell lymphoma cells (DEL). The experiment can be described thus: In vitro potency (CellTiter-Glo, 96 h), DEL. As to the method: as §1, §2, §3, §4
as §1, with “37°” for “37 0°”
as §5, §6

The test system of experiment [10] is renal carcinoma cells (786-O). Kind of experiment: In vitro potency (CellTiter-Glo, 96 h), 786-O. The following applies: Homo sapiens, 786-0, 96 h. As to the method:
as §1, §2, §3, §4
as §1, with “37°” for “37 0°”
as §5, §6

For experiment [11], the system named is pancreatic cancer cells (BxPC3). The experiment can be described thus: In vitro potency (CellTiter-Glo, 96 h), BxPC3. The settings on record: Homo sapiens, BXPC-3, 96 h. How it is done: as §1, §2, §3, §4
as §1, with “37°” for “37 0°”
as §5, §6

[12] abbreviates: camptothecin free drug, 96 h, read-out: Karpas299 IC50.
The mark [13] stands for this setting: camptothecin free drug, read-out: MDAMB231 IC50.
Setting [14] is: camptothecin free drug, read-out: DELBVR IC50.
[15] abbreviates: camptothecin free drug, 96 h, read-out: SU-DHL-4 IC50.
Where [16] appears, read: camptothecin free drug, read-out: L540cy IC50.
Where [17] appears, read: camptothecin free drug, read-out: Ls174T IC50.
The mark [18] stands for this setting: camptothecin free drug, 96 h, read-out: MOLM-13 IC50.
The mark [19] stands for this setting: camptothecin free drug, read-out: DEL IC50.
The mark [20] stands for this setting: camptothecin free drug, 96 h, read-out: 786-O IC50.
Where [21] appears, read: camptothecin free drug, 96 h, read-out: BxPC3 IC50.

Consider `CC[C@@]1(O)C(=O)OCc2c1cc1n(c2=O)Cc2c-1nc1cc3c(cc1c2CNCCCN(C)C(=O)OC(C)(C)C)OCO3` [Compound 7a], for which the IC50 in [1] (camptothecin free drug, 96 h) worked out at 23 nM; in experiment [2] (setting [12]) it was 135 nM; in [3] (setting [13]), 390 nM; in experiment [4] (setting [14]), 49 nM; in [5] (setting [15]), 64 nM; in [6] (setting [16]), 52 nM. The IC50 in experiment [7] (setting [17]) turned out to be 74 nM; in [8] (setting [18]), 223 nM; in [9] (setting [19]), 25 nM; in experiment [10] (setting [20]) it was 111 nM; in [11] (setting [21]) it was 81 nM.

Turning to `CC[C@@]1(O)C(=O)OCc2c1cc1n(c2=O)Cc2c-1nc1cc3c(cc1c2CN1CCN(CCNC(=O)OC(C)(C)C)CC1)OCO3` [Compound 7af], the IC50 in experiment [1] (camptothecin free drug, 96 h) worked out at 38 nM; in experiment [2] (setting [12]), 127 nM; in experiment [3] (setting [13]) it was 1000 nM; in experiment [4] (setting [14]), 24 nM; in [5] (setting [15]) it was 48 nM; in experiment [6] (setting [16]), 62 nM. Besides, the IC50 in experiment [7] (setting [17]) amounted to 80 nM; in experiment [8] (setting [18]), 110 nM; in experiment [9] (setting [19]), 15 nM; in experiment [10] (setting [20]), 177 nM; in [11] (setting [21]), 176 nM.

For the molecule `CC[C@@]1(O)C(=O)OCc2c1cc1n(c2=O)Cc2c-1nc1cc3c(cc1c2CNCCN1CCN(C)CC1)OCO3` [Compound 7b], the IC50 in [1] amounted to 55 nM; in experiment [2] (read-out: Karpas299 IC50, camptothecin free drug, 96 h), 158 nM; in [4] (read-out: DELBVR IC50, camptothecin free drug, 96 h), 55 nM; in experiment [5] (read-out: SU-DHL-4 IC50, camptothecin free drug, 96 h), 94 nM; in [6] (read-out: L540cy IC50, camptothecin free drug, 96 h) it was 87 nM; in experiment [7] (read-out: Ls174T IC50, camptothecin free drug, 96 h), 77 nM. For the same molecule, the IC50 turned out to be 533 nM in experiment [8] (read-out: MOLM-13 IC50, camptothecin free drug, 96 h); 54 nM in experiment [9] (read-out: DEL IC50, camptothecin free drug, 96 h); 162 nM in experiment [10] (read-out: 786-O IC50, camptothecin free drug, 96 h); 172 nM in experiment [11] (read-out: BxPC3 IC50, camptothecin free drug, 96 h).

Take `CC[C@@]1(O)C(=O)OCc2c1cc1n(c2=O)Cc2c-1nc1cc3c(cc1c2CNCCN1CCN(C(=O)OC(C)(C)C)CC1)OCO3` [Compound 7f]: the IC50 was determined as 41 nM in experiment [1] (camptothecin free drug, 96 h); 162 nM in experiment [2] (setting [12]); 776 nM in experiment [3] (setting [13]); 52 nM in [4] (setting [14]); 83 nM in [5] (setting [15]); 66 nM in experiment [6] (setting [16]). The IC50 in experiment [7] (setting [17]) is 69 nM; in experiment [8] (setting [18]), more than 1000 nM; in [9] (setting [19]), 52 nM; in [10] (setting [20]), 130 nM; in experiment [11] (setting [21]), 155 nM.

For `CC[C@@]1(O)C(=O)OCc2c1cc1n(c2=O)Cc2c-1nc1cc(F)c(C)c(Cl)c1c2CNC(=O)CN` [Compound 13a], the IC50 was 1 nM in experiment [2] (read-out: Karpas299 IC50, Table 28, CPT free drugs, anaplastic large cell lymphoma cells Karpas299, 96 h, CellTiter-Glo); 5 nM in experiment [3] (read-out: MDAMB231 IC50, Table 28, CPT free drugs, breast cancer cells MDA-MB-231, CellTiter-Glo); 1 nM in experiment [4] (read-out: DELBVR IC50, Table 28, CPT free drugs, anaplastic large cell lymphoma cells DELBVR, CellTiter-Glo); 1 nM in [5] (read-out: SU-DHL-4 IC50, Table 28, CPT free drugs, B-lymphocyte cancer cells SU-DHL4, 96 h, CellTiter-Glo); 1 nM in experiment [6] (read-out: L540cy IC50, Table 28, CPT free drugs, Hodgkin's lymphoma cells L540cy, CellTiter-Glo); 44 nM in [7] (read-out: Ls174T IC50, Table 28, CPT free drugs, Ls174T cells, CellTiter-Glo). Besides, the IC50 in experiment [8] (read-out: MOLM-13 IC50, Table 28, CPT free drugs, acute myeloid leukemia cells MOLM-13, 96 h, CellTiter-Glo) is 2 nM; in experiment [9] (read-out: DEL IC50, Table 28, CPT free drugs, anaplastic large cell lymphoma cells DEL, CellTiter-Glo), 0.3 nM; in experiment [10] (read-out: 786-O IC50, Table 28, CPT free drugs, renal carcinoma cells 786-O, 96 h, CellTiter-Glo), 6 nM; in [11] (read-out: BxPC3 IC50, Table 28, CPT free drugs, pancreatic cancer cells BxPC3, 96 h, CellTiter-Glo) it was 5 nM.
